Source: ChEMBL document CHEMBL4819004, “Discovery of selective CDK9 degraders with enhancing antiproliferative activity through PROTAC conversion” (Eur J Med Chem, 2021)
Active and inactive are the calls of the source. The calls are words filed in the database; no cut-off is given here.

Assays:
[1] = test system: HCT-116; experiment: Antiproliferative activity against human HCT-116 cells incubated for 72 hrs by MTT assay; assay type: functional, cell-based; settings: HCT-116, 72 h
[2] = test system: HepG2; experiment: Antiproliferative activity against human HepG2 cells incubated for 72 hrs by MTT assay; assay type: functional, cell-based; settings: HepG2, 72 h
[3] = test system: MCF7; experiment: Antiproliferative activity against human MCF7 cells incubated for 72 hrs by MTT assay; assay type: functional, cell-based; settings: MCF7, 72 h
[4] = test system: MV4-11; experiment: Induction of apoptosis in human MV4-11 cells assessed as total apoptotic cells at 1 nM after 6 hrs by AnnexinV-FITC/propidium iodide staining based flow cytometry (reference value: 9.75 %); assay type: functional
[5] = test system: MV4-11; experiment: Induction of apoptosis in human MV4-11 cells assessed as total apoptotic cells at 30 nM after 6 hrs by AnnexinV-FITC/propidium iodide staining based flow cytometry (reference value: 9.75 %); assay type: functional
[6] = test system: MV4-11; experiment: Induction of apoptosis in human MV4-11 cells assessed as total apoptotic cells at 500 nM after 6 hrs by AnnexinV-FITC/propidium iodide staining based flow cytometry (reference value: 9.75 %); assay type: functional
[7] = test system: MV4-11; experiment: Induction of apoptosis in human MV4-11 cells assessed as total apoptotic cells at 1000 nM after 6 hrs by AnnexinV-FITC/propidium iodide staining based flow cytometry (reference value: 9.75 %); assay type: functional
[8] = test system: MV4-11; experiment: Induction of apoptosis in human MV4-11 cells assessed as viable cells at 100 nM after 6 hrs by AnnexinV-FITC/propidium iodide staining based flow cytometry (reference value: 90.1 %); assay type: functional; settings: read-out: Activity
[9] = test system: MV4-11; experiment: Induction of apoptosis in human MV4-11 cells assessed as viable cells at 250 nM after 6 hrs by AnnexinV-FITC/propidium iodide staining based flow cytometry (reference value: 90.1 %); assay type: functional; settings: read-out: Activity
[10] = test system: MV4-11; experiment: Induction of apoptosis in human MV4-11 cells assessed as viable cells at 1000 nM after 6 hrs by AnnexinV-FITC/propidium iodide staining based flow cytometry (reference value: 90.1 %); assay type: functional; settings: read-out: Activity
[11] = test system: MV4-11; experiment: Induction of apoptosis in human MV4-11 cells assessed as early apoptotic cells at 1 nM after 6 hrs by AnnexinV-FITC/propidium iodide staining based flow cytometry (reference value: 5.36 %); assay type: functional
[12] = test system: MV4-11; experiment: Induction of apoptosis in human MV4-11 cells assessed as early apoptotic cells at 30 nM after 6 hrs by AnnexinV-FITC/propidium iodide staining based flow cytometry (reference value: 5.36 %); assay type: functional
[13] = test system: MV4-11; experiment: Induction of apoptosis in human MV4-11 cells assessed as early apoptotic cells at 100 nM after 6 hrs by AnnexinV-FITC/propidium iodide staining based flow cytometry (reference value: 5.36 %); assay type: functional
[14] = test system: MV4-11; experiment: Induction of apoptosis in human MV4-11 cells assessed as early apoptotic cells at 500 nM after 6 hrs by AnnexinV-FITC/propidium iodide staining based flow cytometry (reference value: 5.36 %); assay type: functional
[15] = test system: MV4-11; experiment: Induction of apoptosis in human MV4-11 cells assessed as early apoptotic cells at 1000 nM after 6 hrs by AnnexinV-FITC/propidium iodide staining based flow cytometry (reference value: 5.36 %); assay type: functional
[16] = test system: MV4-11; experiment: Induction of apoptosis in human MV4-11 cells assessed as late apoptotic cells at 1 nM after 6 hrs by AnnexinV-FITC/propidium iodide staining based flow cytometry (reference value: 4.29%); assay type: functional
[17] = test system: MV4-11; experiment: Induction of apoptosis in human MV4-11 cells assessed as late apoptotic cells at 1000 nM after 6 hrs by AnnexinV-FITC/propidium iodide staining based flow cytometry (reference value: 4.29%); assay type: functional
[18] = test system: MV4-11; experiment: Induction of apoptosis in human MV4-11 cells assessed as necrotic cells at 1 nM after 6 hrs by AnnexinV-FITC/propidium iodide staining based flow cytometry (reference value: 0.16 %); assay type: functional
[19] = test system: MV4-11; experiment: Induction of apoptosis in human MV4-11 cells assessed as necrotic cells at 30 nM after 6 hrs by AnnexinV-FITC/propidium iodide staining based flow cytometry (reference value: 0.16 %); assay type: functional
[20] = test system: MV4-11; experiment: Induction of apoptosis in human MV4-11 cells assessed as necrotic cells at 100 nM after 6 hrs by AnnexinV-FITC/propidium iodide staining based flow cytometry (reference value: 0.16 %); assay type: functional
[21] = test system: MV4-11; experiment: Induction of apoptosis in human MV4-11 cells assessed as necrotic cells at 250 nM after 6 hrs by AnnexinV-FITC/propidium iodide staining based flow cytometry (reference value: 0.16 %); assay type: functional
[22] = test system: MV4-11; experiment: Induction of apoptosis in human MV4-11 cells assessed as necrotic cells at 500 nM after 6 hrs by AnnexinV-FITC/propidium iodide staining based flow cytometry (reference value: 0.16 %); assay type: functional
[23] = Half life in BALB/c nude mouse xenografted with human MV4-11 cells at 5 mg/kg, iv by LC/MS/MS analysis; assay type: ADME, organism-based; settings: in vivo
[24] = test system: MV4-11; experiment: Potency index, ratio of BAY-1143572 IC50 to test compound IC50 for antiproliferative activity against human MV4-11 cells incubated for 72 hrs by MTT assay; assay type: functional
[25] = target: Cyclin-dependent kinase 9 (Homo sapiens) (UniProt P50750); experiment: Inhibition of human full length recombinant CDK9 expressed in bacterial expression system assessed as remaining enzyme activity at 1 uM by competitive binding Kinome scan analysis
[26] = target: T1, Protein cereblon/Cyclin-dependent kinase 9 (Homo sapiens, UniProt P50750+Q96SW2); experiment: Protac activity at CRBN/CDK9 in human MV4-11 cells assessed as induction of CDK9 degradation by measuring downregulation of CDK9 expression level at 250 nM measured after 1 hr by western blot analysis; assay type: cell-based
[27] = target: T1, Protein cereblon/Cyclin-dependent kinase 9; experiment: Protac activity at CRBN/CDK9 in human MV4-11 cells assessed as induction of CDK9 degradation by measuring MCL-1 protein expression level at 250 nM measured after 12 hrs by western blot analysis; assay type: cell-based
[28] = target: T1, Protein cereblon/Cyclin-dependent kinase 9; experiment: Reversible PROTAC activity at CRBN/CDK9 in human MV4-11 cells assessed as CDK9 degradation at 250 nM incubated for 6 hrs followed by drug wash-out for 12 hrs by western blot analysis; assay type: cell-based
[29] = target: Protein cereblon/Cyclin-dependent kinase 7 (Homo sapiens) (UniProt P50613+Q96SW2); experiment: PROTAC activity at CRBN/CDK7 in human MV4-11 cells assessed as induction of CDK7 degradation at 31.25 to 500 nM measured after 3 hrs by western blot analysis; assay type: cell-based; settings: dose 31.25-500 nM
[30] = target: Protein cereblon/Cyclin-dependent kinase 6 (Homo sapiens) (UniProt Q00534+Q96SW2); experiment: PROTAC activity at CRBN/CDK6 in human MV4-11 cells assessed as induction of CDK6 degradation at 31.25 to 500 nM measured after 3 hrs by western blot analysis; assay type: cell-based; settings: dose 31.25-500 nM
[31] = target: T1, Protein cereblon/Cyclin-dependent kinase 9; experiment: PROTAC activity at CRBN/CDK9 in human MV4-11 cells assessed as reduction in RNA PolII CTD phosphorylation at Ser2 residue measured after 6 hrs by western blot analysis; assay type: cell-based; settings: dose 31.25-8000 nM
[32] = target: T1, Protein cereblon/Cyclin-dependent kinase 9; experiment: PROTAC activity at CRBN/CDK9 in human MV4-11 cells assessed as reduction in CDK9 protein expression at 100 nM measured after 3 hrs by whole proteome mass spectrometry; assay type: cell-based

COc1cc(F)ccc1-c1ncnc(Nc2cccc(CS(C)(=O)=NC(=O)CCCCCCCC(=O)NCCNc3cccc4c3C(=O)N(C3CCC(=O)NC3=O)C4=O)c2)n1 (configuration not stated)
IC50 [1]: 3.08 µM | IC50 [2]: 2.11 µM | IC50 [3]: 3.12 µM | Activity [4]: 22.1% | Activity [5]: 22.3% | Activity [6]: 67.9% | Activity [7]: 80.4% | viability at 0.1 µM [8]: 72.7% | viability at 0.25 µM [9]: 40.1% | viability at 1 µM [10]: 28.2% | Activity [11]: 6.13% | Activity [12]: 7.46% | Activity [13]: 11.5% | Activity [14]: 54.2% | Activity [15]: 54.4% | Activity [16]: 14% | Activity [17]: 16% | Activity [18]: 0.77% | Activity [19]: 0.28% | Activity [20]: 0.47% | Activity [21]: 0.47% | Activity [22]: 0.72% | half-life [23]: 1.3 h | Ratio IC50 [24]: 20 | Activity [25]: < 10% | Activity [26]: Active | Activity [27]: 0% | Activity [28]: Active | Activity [29]: inactive | Activity [30]: inactive | Activity [31]: Dose-Dependent Effect | Activity [32]: Active
